Assay results: patent US20040132696A1, “Therapeutic agents for pigmentation and melanocyte growth inhibitory agents” (priority 1999, published 2004)
Read-outs that look alike come from different tables or passages of the source.

Tests used:
Assay type in all cases: cell-based
[1] = test system: normal human epidermal melanocytes (NHEM); assay: Growth inhibition of cultured human melanocytes (cell count by Coulter Counter); conditions: Melanocyte, 144 h, read-out: inhibitory effect against the proliferation of melanocytes
Method: (§1) Melanocytes: normal human epidermal melanocytes (NHEM:KM-4009, Kurabo Industries).
(§2) Melanocytes were cultured at 2×10^5 cells/well in MGM3 (Melanocyte Growth Medium 3, Takara Shuzo) used as a culture medium. Keratinocytes were cultured at 1×10^5 cells/well in KGM2 (Keratinocyte Growth Medium 2, Takara Shuzo) used as a culture medium. To each well was added 22-oxacalcitriol or calcitriol at a final concentration of 10^−7 M and cultivation was continued. On days 3 and 6 after the addition, the number of cells was determined by a Coulter Counter.

Human melanocytes = assay: Tritiated thymidine (3[H]-TdR) uptake by cultured human melanocytes; conditions: 10^-7 M, day 1
Method: as §1
Human melanocytes were cultured at 5×10^5 cells/well in MGM3 used as a culture medium, and 22-oxacalcitriol or calcitriol was added to each well at a final concentration of 10^−7 M to determine tritiated thymidine (^3[H]-TdR) uptake by cells in a liquid scintillation counter on days 1, 3 and 5 after the addition.

[2] = test system: normal human epidermal keratinocytes (HEKn); assay: Growth inhibition of cultured human keratinocytes (cell count by Coulter Counter); conditions: Keratinocyte, 144 h, read-out: inhibition against keratinocytes
Method: Keratinocytes: normal human epidermal keratinocytes (HEKn:C-001-5C, Kurabo Industries).
as §2

[3] = 10^-7 M, day 6, average of 5 experiments

SMILES	inhibition at 0.1 µM [1]	decrease in tritiated thymidine uptake (Human melanocytes)	inhibition at 0.1 µM [2]	inhibition at 0.1 µM [1, 3]	inhibition at 0.1 µM [2, 3]
C=C1/C(=C\C=C2/CCC[C@]3(C)[C@@H]([C@H](C)CCCC(C)(C)O)CC[C@@H]23)C[C@@H](O)C[C@@H]1O [calcitriol, 1α,25-dihydroxyvitamin D3]	≥ 30%	50%	40%		
C=C1/C(=C\C=C2/CCC[C@]3(C)[C@@H]([C@H](C)OCCC(C)(C)O)CC[C@@H]23)C[C@@H](O)C[C@@H]1O [22-oxacalcitriol]				≥ 30%	25%
